According to US20250361543A1, “Instrumentation for Rapid Antimicrobial Susceptibility Testing from Bodily Fluids and Cultures” (Georgia Tech Research Corporation, priority 2022, published 2025):
Converted amounts (≈) assume the structure as drawn. Like-named read-outs stand apart in the source and are kept apart here.

Test system: Escherichia coli
Experiment: Plate reader antimicrobial susceptibility test (MIC) directly from positive blood culture
Format: cell-based
Conditions: for MIC: Escherichia coli
Description: The tests can also provide a low labor cost. Disclosed in this example are systems and methods for performing ASTs directly from positive blood cultures. De-identified hospital patient positive blood cultures were received within 8 hours of being flagged positive. ASTs were performed using various antimicrobial agents, namely seven antibiotics (ceftazidime, meropenem, tobramycin, levofloxacin, cefepime, gentamicin, and amikacin). The positive blood cultures were diluted 250-fold in cation-adjusted Mueller-Hinton Broth (CAMHB) media and 100 μL of this diluted sample was dispensed into each well of a 96-well microtiter plate, already containing 100 μL of varying concentration of one antibiotic. […] The sample-filled 96-well plate was sealed by sterile plastic film and incubated in a microtiter plate reader at 37° C. A temperature gradient of 0.5° C. was selected to prevent condensation on cover film. Each well was scanned every one hour from 400 to 895 nm with a 5 nm step starting from the time of incubation (0 hours) resulting in a total of nineteen spectra per well.
Relating to data analysis-spectra (400 to 895 nm) vs time were acquired from each well. Spectral principal components (PCs) were computed for all wells at each time point and those explaining at least 90% of the variance were calculated. […] Determining the lowest concentration for each antibiotic that inhibited growth based on these spectral overlaps determined the MIC for each antibiotic used.
The antibiotics concentrations are as in the plate layout and growth is measures as absorption at each excitation wavelength compares with the positive controls. Dark red indicates growth while bright red indicates no growth.

[1] = 6 hours incubation at 37° C, positive blood culture diluted 500-fold in CAMHB, assay of FIG. 4, read-out: MIC (6 hours)
[2] = 8 hours incubation at 37° C, positive blood culture diluted 500-fold in CAMHB, assay of FIG. 4, read-out: MIC (8 hours)
[3] = 10 hours incubation at 37° C, positive blood culture diluted 500-fold in CAMHB, assay of FIG. 4, read-out: MIC (10 hours)
[4] = 18 hours incubation at 37° C, positive blood culture diluted 500-fold in CAMHB, assay of FIG. 4, read-out: MIC (18 hours)

Compound | MIC [1] [µg/mL] | MIC [2] [µg/mL] | MIC [3] [µg/mL] | MIC [4] [µg/mL] | also measured
C[C@@H](O)[C@H]1C(=O)N2C(C(=O)O)=C(S[C@@H]3CN[C@H](C(=O)N(C)C)C3)[C@H](C)[C@H]12 [Meropenem, meropenem] | ≤ 0.0312 | ≤ 0.0312 | ≤ 0.0312 | ≤ 0.0312 | 
CC(C)(O/N=C(\C(=O)N[C@@H]1C(=O)N2C(C(=O)[O-])=C(C[n+]3ccccc3)CS[C@H]12)c1csc(N)n1)C(=O)O [Ceftazidime, ceftazidime] | 0.0625 (≈ 0.114 µM) | 0.0625 (≈ 0.114 µM) | 0.0625 (≈ 0.114 µM) | 0.0625 (≈ 0.114 µM) | 
C[C@H]1COc2c(N3CCN(C)CC3)c(F)cc3c(=O)c(C(=O)O)cn1c23 [Levofloxacin, levofloxacin] | ≤ 0.0312 | ≤ 0.0312 | ≤ 0.0312 | ≤ 0.0312 | 
CO/N=C(\C(=O)N[C@@H]1C(=O)N2C(C(=O)[O-])=C(C[N+]3(C)CCCC3)CS[C@H]12)c1csc(N)n1 [Cefepime, cefepime] |  |  |  |  | MIC (6 h, read-out: MIC (6 hours)): ≤ 0.0312 µg/mL; MIC (8 h, read-out: MIC (8 hours)): ≤ 0.0312 µg/mL; MIC (10 h, read-out: MIC (10 hours)): ≤ 0.0312 µg/mL; MIC (18 h, read-out: MIC (18 hours)): ≤ 0.0312 µg/mL
NCC[C@H](O)C(=O)N[C@@H]1C[C@H](N)[C@@H](O[C@H]2O[C@H](CN)[C@@H](O)[C@H](O)[C@H]2O)[C@H](O)[C@H]1O[C@H]1O[C@H](CO)[C@@H](O)[C@H](N)[C@H]1O [Amikacin, amikacin] | 2 (≈ 3.42 µM) | 2 (≈ 3.42 µM) | 2 (≈ 3.42 µM) | 2 (≈ 3.42 µM) | 
gentamicin |  |  |  |  | MIC (6 hours) (6 hours incubation at 37° C, positive blood culture diluted 500-fold in CAMHB, assay of FIG. 4): 1 µg/mL; MIC (8 hours) (8 hours incubation at 37° C, positive blood culture diluted 500-fold in CAMHB, assay of FIG. 4): 1 µg/mL; MIC (10 hours) (10 hours incubation at 37° C, positive blood culture diluted 500-fold in CAMHB, assay of FIG. 4): 1 µg/mL; MIC (18 hours) (18 hours incubation at 37° C, positive blood culture diluted 500-fold in CAMHB, assay of FIG. 4): 1 µg/mL
NC[C@H]1O[C@H](O[C@H]2[C@H](O)[C@@H](O[C@H]3O[C@H](CO)[C@@H](O)[C@H](N)[C@H]3O)[C@H](N)C[C@@H]2N)[C@H](N)C[C@@H]1O [Tobramycin, tobramycin] | 1 (≈ 2.14 µM) | 1 (≈ 2.14 µM) | 1 (≈ 2.14 µM) | 1 (≈ 2.14 µM) | 
